From patent US20030198617A1, “Pharmaceutical tryptophan containing dipeptide compositions and methods of use thereof” (priority 1993, published 2003)
Marks after values point to notes of the source that are not given here.

How the values were obtained:
[1] = Prolonged IM862 therapy trials in irradiated patients, blood parameters; type: in vivo, human
Source text: The group of patients described in Example 42 were further treated for a period of […] and tested again subsequent to the first stage of therapy (after 4 months) and after the second stage of therapy (6 months).

[2] = Chronic prostatitis, clinical result and immunological examination
Experimental: A clinical study of the preparation was conducted in 34 chronic prostatitis patients having active inflammation. Patients were aged 22 to 45 years old. Diagnosis was established by patient complaints, a medical history, palpation of the prostate, and laboratory investigation methods (microscopic examination of prostate gland secretions, spermography, three-cup urinalysis).
A traditional treatment plan was followed simultaneously, using antibacterial preparations, uroantiseptics, physical procedures, prostate gland massage, and therapeutic exercise.
Measurement reliability of the obtained indices was evaluated with the use of variable statistics methods.
The persistent disappearance (over an observation period of 1-1.5 months) of painful sensations, leukocyturia, the lowering of the leukocyte count to normal levels in prostate gland secretions and ejaculate, and the overall improvement in the general state of the patient were all deemed to be a good result.
The normalization of all laboratory indices while complaints of pain persisted in the perineum, sacrum, anal region, scrotum, etc. was rated as a satisfactory result.
The second group was made up of patients with lowered initial indices, and the third had patients with elevated initial indices.

[3] = Chronic pyoderma (staphylococcal skin diseases), clinical and immunological testing
Experimental: IM862 was used in the form of a 0.01% solution (100 μg of the preparation in one IV tube). The preparation was administered intranasally, daily, at 100 μg for a course of 5 days.
The effectiveness of IM862 use was evaluated according to the subjective impression of the patient, clinical findings, body temperature, general clinical and immunological testing of the peripheral blood. Also, bacteriological investigation of the disease agents were conducted before and after treatment with IM862.
IM862 was administered to 59 chronic pyoderma patients. […] The patients ranged in age from 18 to 56 years old. Thirty-two men and 27 women were studied. Duration of illness was from 5 months to 16 years.
For determining the norm of T- and B-system immunity and non-specific resistance, 175 healthy donors (men & women), aged 18 to 50 years, were examined. Lymphocytes were extracted from the heparinized (25 U/ml) peripheral blood of healthy and ill persons in a ficoll-urotrast density gradient. T-lymphocytes were identified by spontaneous rosette-formation with ram erythrocytes. The T-lymphocyte subpopulations were determined with the aid of mouse monoclonal antibodies, OKT4 and OKT8, as well as with the aid of a theophylline resistance test. B-lymphocytes were determined by rosette-formation with mouse erythrocytes. The B-lymphocyte subpopulations were determined according to the presence of various classes of immunoglobulins (Ig+, IgM^+, IgG^+, IgA^+) on their surfaces with the aid of monospecific antibodies. In serum, the content of the immunoglobulins M, G, & A, and the C3-component of complement was determined by using monospecific sera to human immunoglobulins with the radial immunodiffusion method. The percentage of migration inhibition in a LMIR with PHA and ConA was determined using the hemolytic staphylococcus allergen (HSA). The phagocytic activity of the neutrophils (percent and absolute quantity of phagocytic polymorphonuclear leukocytes) and the phagocytic index (mean quantity of microorganisms absorbed by a single phagocyte) were studied with the use of a museum culture of the “Oxford 209P” strain. Other analyzed parameters were the cationic protein content (MCC) in the neutrophils, the serum immune complexes (CIC), the natural killer activity (CI) by the 3H-uridine test, and the quantity of neutrophils forming rosettes with sheep erythrocytes.

[4] = system: corneal epithelium; assay: Corneal epithelium restoration (experimental data); type: in vivo; details: IM862 IM, intranasally or ocular installation
[5] = Psoriasis study (Example 108); type: in vivo, human; details: during treatment
Experimental: A comparative study of immunological, coagulation, and acute phase protein parameters was conducted on 30 patients with disseminated forms of psoriasis on normal treatment. Twenty-seven patients had widespread lesions of the smooth skin and scalp; two had psoriatic erythroderma. The period of illness in the majority of those examined exceeded 5 years. In two persons the nail plates were involved in the form of a “thimble” symptom.
Patients were treated under identical conditions and received therapy of vitamins B12, B6, and A, folic acid, pyrogens, sedatives, and desensitizing preparations. Salidol ointment and 3-5% sulfur-salicylic ointments were used locally.
Basic immunological and coagulation assays were conducted on all patients. The findings obtained were compared with the results of investigations done on healthy people between the ages of 18-40 years. […] At the same time, a drop is noted in the quantity of T-lymphocytes, a decrease in the level of T-helpers and suppressors, and a growth in the concentrations of IgA, M, and to a lesser degree, IgG.

[6] = system: skin grafts; assay: Skin allograft survival in mice; type: in vivo
[7] = after the 1st stage of IM862 use
[8] = after the 2nd state of IM862 use
[9] = 34 chronic prostatitis patients
[10] = after treatment 100 μg i.m. for 5 days
[11] = elevated in 1 patient, after treatment
[12] = initial level lowered n = 14, after treatment
[13] = normal in 34 patients, after treatment
[14] = Abscessing and indurative comedones
[15] = after IM862, phagocytosis with staph. cells
[16] = after treatment with IM862 (Table 21)

For Glu-Trp [IM862], the “CD2-DR+, %” value [1, 7] was 22.3 ± 0.5%, the “CD2-DR+, abs” value [1, 7] was 0.34 ± 0.05* 10^9/l and the “CD3, %” value [1, 7] was 35 ± 4 %. The “CD3, abs” value [1, 7] was 0.49 ± 0.06* 10^9/l, the “CD4, %” value [1, 7] was 19.5 ± 1.7 % and the “CD4, abs” value [1, 7] was 0.28 ± 0.03* 10^9/l. The “CD8, %” value [1, 7] was 15.4 ± 2.3%, the “CD8, abs” value [1, 7] was 0.23 ± 0.03 10^9/l and the “CD19, %” value [1, 7] was 15.0 ± 2.8%. The “CD19, abs” value [1, 7] was 0.21 ± 0.06 10^9/l, the “Leukocytes, abs” value [1, 7] was 4.7 ± 0.2* 10^9/l and the “Lymphocytes, abs” value [1, 7] was 1.5 ± 0.4 10^9/l. For the same substance, the “CD2-DR+, %” value [1, 8] was 29 ± 3 %, the “CD2-DR+, abs” value [1, 8] was 0.56 ± 0.08* 10^9/l and the “CD3, %” value [1, 8] was 46 ± 3 %. The “CD3, abs” value [1, 8] was 0.89 ± 0.11* 10^9/l, the “CD4, %” value [1, 8] was 24.1 ± 1.5 % and the “CD4, abs” value [1, 8] was 0.45 ± 0.04* 10^9/l. For the same substance, the “CD8, %” value [1, 8] was 22.3 ± 2.2 %, the “CD8, abs” value [1, 8] was 0.40 ± 0.05* 10^9/l and the “CD19, %” value [1, 8] was 21.1 ± 2.1 %. For the same substance, the “CD19, abs” value [1, 8] was 0.39 ± 0.06* 10^9/l, the “Leukocytes, abs” value [1, 8] was 5.5 ± 0.3* 10^9/l and the “Lymphocytes, abs” value [1, 8] was 1.9 ± 0.5* 10^9/l. For the same substance, the “good result, share of patients” value [2, 9] was 76.5%, the “satisfactory result, number of patients” value [2, 9] was 8 patients and the “good result, number of patients” value ([2]; 34 chronic prostatitis patients, IM862 with traditional treatment) was 26 patients. For the same substance, the “elevated and lowered immune indices upon completion of treatment” value ([2]; IM862 use) was “a normalization was observed in all the elevated and lowered indices”, the B-lymphocytes % [2, 10] was 27.24 ± 1.44% and the “B-lymphocytes Abs. quantity ×10^9” value [2, 10] was 0.54 ± 0.10 ×10^9. The Complement units [2, 10] was 29.43 ± 0.53 units, the IgA [2, 10] was 2.20 ± 0.12 g/L and the IgG [2, 10] was 12.52 ± 0.63 g/L. The Imm. complexes units [2, 10] was 0.080 ± 0.004 units, the Phagocytosis % [2, 10] was 39.41 ± 3.51% and the T-lymphocytes % [2, 10] was 44.44 ± 2.34%. For the same substance, the “T-lymphocytes Abs. quantity ×10^9” value [2, 10] was 0.88 ± 0.07 ×10^9, the IgG [2, 11] was 14.71 ± 1.42 g/L and the IgM [2, 11] was 3.44 g/L. For the same substance, the T-lymphocytes % ([2]; initial level elevated n = 2, after treatment) was 40.0 ± 15.5%, the Complement units ([2]; initial level elevated n = 7, after treatment) was 30.7 ± 0.89 units and the B-lymphocytes % ([2]; initial level elevated n = 8, after treatment) was 24.8 ± 2.91^x %. For the same substance, the Imm. complexes units ([2]; initial level elevated n = 19, after treatment) was 0.08 ± 0.006^x units, the Phagocytosis % ([2]; initial level elevated n = 26, after treatment) was 37.7 ± 3.94% and the Phagocytosis % ([2]; initial level lowered n = 5, after treatment) was 36.6 ± 8.54^x %. The Imm. complexes units ([2]; initial level lowered n = 8, after treatment) was 0.07 ± 0.011 units, the B-lymphocytes % ([2]; initial level lowered n = 10, after treatment) was 26.0 ± 2.91^x % and the Complement units [2, 12] was 34.2 ± 0.93^x units. For the same substance, the T-lymphocytes % [2, 12] was 37.9 ± 2.24%, the Phagocytosis % ([2]; initial level normal n = 3, after treatment) was 58.6 ± 17.98% and the Imm. complexes units ([2]; initial level normal n = 7, after treatment) was 0.08 ± 0.006 units. For the same substance, the Complement units ([2]; initial level normal n = 13, after treatment) was 29.3 ± 0.88 units, the B-lymphocytes % ([2]; initial level normal n = 16, after treatment) was 29.2 ± 2.15% and the T-lymphocytes % ([2]; initial level normal n = 18, after treatment) was 50.0 ± 3.57%. For the same substance, the IgG ([2]; lowered in 2 patients, after treatment) was 7.80 ± 1.13 g/L, the IgM ([2]; normal in 33 patients, after treatment) was 2.08 ± 0.12 g/L and the “Ig (character image) l” value [2, 13] was 2.20 ± 0.12. For the same substance, the IgG [2, 13] was 12.51 g/L, the “Considerable Improvement, number of patients” value (from here on “Considerable Improvement”) [3, 14] was 1 and the “Recovery, number of patients” value [3, 14] was 4. For the same substance, the “improvement, number of patients” value [3, 14] was 1, the “Considerable Improvement” value ([3]; Chronic abscessing pyoderma) was 2 and the “Recovery, number of patients” value ([3]; Chronic abscessing pyoderma) was 5. The “Recovery, number of patients” value ([3]; Chronic furunculosis) was 10, the “Recovery, number of patients” value ([3]; Chronic recurring folliculitis-deep) was 1 and the “Recovery, number of patients” value ([3]; Chronic recurring osteofolliculitis) was 3. The “Considerable Improvement” value ([3]; Chronic ulcerative pyoderma) was 2, the “Considerable Improvement” value ([3]; Papulous-pustulous comedones) was 3 and the “Recovery, number of patients” value ([3]; Papulous-pustulous comedones) was 4. For the same substance, the “Considerable Improvement” value ([3]; Total number of patients) was 8, the “improvement, number of patients” value ([3]; Total number of patients) was 1 and the “Recovery, number of patients” value ([3]; Total number of patients (36 resistant to standard therapy)) was 27. The CIC units ([3]; after IM862) was 45.9 ± 4.9 units, the “Cathion proteins MCC × 10^9/l” value ([3]; after IM862) was 1.46 ± 0.05^y and the Etr-RFC/Ets-RFC ([3]; after IM862) was 5.32 ± 1.00. For the same substance, the “LMIF with ConA %” value ([3]; after IM862) was 58.3 ± 3.9^yy %, the “LMIF with HSA %” value ([3]; after IM862) was 84.9 ± 5.5^yy % and the “LMIF with PHA %” value ([3]; after IM862) was 40.2 ± 3.9^y %. The Lymphocytes % ([3]; after IM862) was 30.8 ± 1.4%, the “Lymphocytes ×10^9/l” value ([3]; after IM862) was 2.41 ± 0.14 ×10^9/l and the “Monocytes × 10^9/l” value ([3]; after IM862) was 0.43 ± 0.04 × 10^9/l. For the same substance, the “NK-activity (CI) %” value ([3]; after IM862) was 45.18 ± 2.55^y %, the “Neutrophils En-RFC %” value ([3]; after IM862) was 14.7 ± 1.6% and the “Neutrophils En-RFC × 10^9/l” value ([3]; after IM862) was 0.7 ± 0.11 × 10^9/l. For the same substance, the “Neutrophils × 10^9/l” value ([3]; after IM862) was 4.54 ± 0.25 × 10^9/l, the “Phagocytic index % × 10^9/l” value ([3]; after IM862) was 5.31 ± 0.20^y and the T4/T8 ([3]; after IM862) was 1.32 ± 011^y^. For the same substance, the “T-helpers Etr-RFC %” value ([3]; after IM862) was 51.7 ± 2.8^y %, the “T-helpers Etr-RFC ×10^9/l” value ([3]; after IM862) was 1.28 ± 0.09^y ×10^9/l and the “T-helpers OKT4^+ %” value ([3]; after IM862) was 20.3 ± 2.9%. The “T-helpers OKT4^+ ×10^9/l” value ([3]; after IM862) was 0.46 ± 0.05^y ×10^9/l, the “T-lymphocytes E-RFC %” value ([3]; after IM862) was 69.3 ± 1.9^y % and the “T-lymphocytes E-RFC ×10^9/l” value ([3]; after IM862) was 1.68 ± 0.12^y ×10^9/l. The “T-suppressors Etr-RFC %” value ([3]; after IM862) was 17.9 ± 2.4%, the “T-suppressors Etr-RFC ×10^9/l” value ([3]; after IM862) was 0.45 ± 0.08 ×10^9/l and the “T-suppressors OKT8 %” value ([3]; after IM862) was 17.1 ± 1.9%. For the same substance, the “T-suppressors OKT8 ×10^9/l” value ([3]; after IM862) was 0.39 ± 0.04 ×10^9/l, the “Leukocytes ×10^9/l” value ([3]; after IM862 (Table 22)) was 7.75 ± 0.33 ×10^9/l and the Monocytes % ([3]; after IM862 (Table 24)) was 5.65 ± 0.40%. The Neutrophils % ([3]; after IM862 (Table 24)) was 59.8 ± 1.6%, the “Phagocytic activity* %” value [3, 15] was 48.9 ± 2.8% and the “Phagocytic activity* × 10^9/l” value [3, 15] was 2.36 ± 0.27 × 10^9/l. The “B-lymphocytes (IgA^+) %” value ([3]; after treatment with IM862) was 2.4 ± 0.3%, the “B-lymphocytes (IgA^+) ×10^9/l” value ([3]; after treatment with IM862) was 0.06 ± 0.008 ×10^9/l and the “B-lymphocytes (IgG^+) %” value ([3]; after treatment with IM862) was 14.7 ± 2.16%. The “B-lymphocytes (IgG^+) ×10^9/l” value ([3]; after treatment with IM862) was 0.19 ± 0.023^y ×10^9/l, the “B-lymphocytes (IgM^+) %” value ([3]; after treatment with IM862) was 4.4 ± 0.6% and the “B-lymphocytes (IgM^+) ×10^9/l” value ([3]; after treatment with IM862) was 0.10 ± 0.01 ×10^9/l. The “B-lymphocytes (Ig^+) %” value ([3]; after treatment with IM862) was 16.9 ± 1.7%, the “B-lymphocytes (Ig^+) ×10^9/l” value ([3]; after treatment with IM862) was 0.34 ± 0.05 ×10^9/l and the “B-lymphocytes Em-RFC %” value ([3]; after treatment with IM862) was 12.1 ± 1.5%. For the same substance, the “B-lymphocytes Em-RFC ×10^9/l” value ([3]; after treatment with IM862) was 0.28 ± 0.04 ×10^9/l, the Bacilli/nuclei % ([3]; after treatment with IM862) was 3.8 ± 0.6% and the Basophils % ([3]; after treatment with IM862) was 0.1 ± 0.1%. For the same substance, the “Body temperature (morning)” value ([3]; after treatment with IM862) was 36.2 ± 0.1, the “ESP, mm/hr” value ([3]; after treatment with IM862) was 11.2 ± 1.4 mm/hr and the “Erythrocytes ×10^12/l” value ([3]; after treatment with IM862) was 5.2 ± 0.6 ×10^12/l. It also gave an IgA ([3]; after treatment with IM862) of 2.40 ± 0.18 g/L, an IgG ([3]; after treatment with IM862) of 15.5 ± 0.73 g/L and an IgM ([3]; after treatment with IM862) of 1.25 ± 0.12 g/L. The Segm./nuclei % ([3]; after treatment with IM862) was 61.9 ± 1.4%, the “Leukocytes ×10^9/l” value [3, 16] was 7.75 ± 0.36 ×10^9/l and the Monocytes % [3, 16] was 5.7 ± 0.4%. The Neutrophils % [3, 16] was 59.8 ± 1.6%, the “side effects / tolerance” value ([3]; intranasally 100 μg daily, 5 days) was “No side effects from its use were noted in any of the patients” and the “relapses, number of patients” value ([3]; observation for 6 months after discharge) was 3 patients. The corneal epithelium [4] was “restoration and regeneration of corneal epithelium”, the “clinical status and immunological parameters” value [5] was “improvement in clinical status and normalization of immunological parameters” and the “GRAFT REJECTION TIME” value ([6]; mice, daily for 5 treatments prior to grafting, IM862 0.01 mg/kg, Thymalin 1.0 mg/kg) was 8.3 ± 0.4 days. The graft survival ([6]; vs animals not receiving Glu-Trp) was “prolonged survival”.
